Assay results published in patent US10130647B2, “Use of ginsenoside M1 for preventing or treating silicosis” (WELLHEAD […]., priority 2015, dated 2018).

Legend:
[1] = test system: mouse J774A.1 macrophages; assay: Silica crystal-induced IL-1β production in LPS-treated J774A.1 macrophages (ELISA); assay type: cell-based; conditions: M1 30 min, then 1 μg/ml LPS, then 200 μg/ml silica crystal 24 h, FIG. 1, p<0.001 vs silica crystals alone
Experimental: The levels of IL-1β in the culture medium were measured by ELISA. *** indicates a significant difference at the level of p<0.001 compared to […].
In FIG. 1, J774A.1 macrophages (1×10^5 cells/500 μl medium/well) were incubated for 30 min with or without Ginsenoside M1, then for 2 h with or without 1 μg/ml LPS (from Escherichia coli 0111:B4, purchased from Sigma, St. Louis, Mo.) in the continued presence or absence of Ginsenoside M1, and then for 24 h with or without 200 μg/ml silica crystal (purchased from InvivoGen, San Diego, Calif.). The levels of IL-1β in the culture medium were measured by ELISA.
(§1) For ELISA assay, 50 μl of biotinylated antibody reagent and 50 μl of culture medium were added to an anti-IL-1β, TNF-α or IL-6 precoated stripwell plate, and incubated at room temperature for 2 h. After washing the plate three times with washing buffer, 100 μl of diluted streptavidin-HRP (horseradish peroxidase) concentrate was added to each well and incubated at room temperature for 30 min. The washing process was repeated; then 100 μl of a premixed tetramethylbenzidine substrate solution was added to each well and developed at room temperature in the dark for 30 min Following the addition of 100 μl of provided stop solution to each well to stop the reaction, the absorbance of the plate was measured by a microplate reader at a 450 nm wavelength. […]

[2] = test system: mouse J774A.1 macrophages; assay: LPS-induced NLRP3 and proIL-1β expression in J774A.1 macrophages (Western blot); assay type: cell-based; conditions: M1 30 min, then 1 μg/ml LPS 6 h, FIG. 2
Experimental: The levels of NLRP3 and […] in the cell lysates were measured by Western blot.
In FIG. 2, J774A.1 macrophages (2×10^6 cells/2 ml medium/dish) were incubated for 30 min with or without Ginsenoside M1, then for 6 h with or without 1 μg/ml LPS in the continued presence or absence of Ginsenoside M1. The levels of NLRP3 and proIL-1β in the cell lysates were measured by Western blot. In brief, After treatment, the cells were collected and lysed at 4° C. in lysis buffer (25 mM Tris-HCl, pH 7.5, 100 mM NaCl, 2.5 mM EDTA, 2.5 mM EGTA, 20 mM NaF, 1 mM Na3VO4, 20 mM sodium β-glycerophosphate, 10 mM sodium pyrophosphate, 0.5% Triton X-100) containing protease inhibitor cocktail (Sigma, St. Louis, Mo.), then the whole cell lysate was separated by SDS-PAGE and electrotransferred to a PVDF membrane. The membranes were incubated for 1 h at room temperature in blocking solution (5% nonfat milk in phosphate buffered saline with 0.1% Tween 20), then were incubated for 2 h at room temperature with NLRP3 or proIL-1β antibody in blocking solution. […]
J774A.1 macrophages were incubated for 30 min with or without Ginsenoside M1, then for 6 h with or without 1 μg/ml LPS in the continued presence or absence of Ginsenoside M1. The levels of NLRP3 and proIL-1β in the cell lysates were measured by Western blot.

human THP-1 macrophages = assay: Silica crystal-induced cytokine production in THP-1 macrophages, Ginsenoside M1 added before LPS (ELISA); assay type: cell-based; conditions: M1 30 min, then 1 μg/ml LPS 5 h, then 200 μg/ml silica crystal 24 h
Experimental: The levels of IL-1β in the culture medium were measured by ELISA. ** indicates a significant difference at the level of p<0.01 compared to silica crystal alone.
The levels of TNF-α in the culture medium were measured by ELISA. ** and *** indicates a significant difference at the level of p<0.01 and p<0.001, respectively compared to silica crystal alone.
The levels of IL-6 in the culture medium were measured by ELISA. * and *** indicates a significant difference at the level of p<0.05 and p<0.001, respectively compared to silica crystal alone.
(§2) The mouse macrophages cell line J774A.1 and human monocytic leukemia cell line THP-1 was obtained from the American Type Culture Collection (Rockville, Md.) and cultured in RPMI 1640 medium supplemented with 10% heat-inactivated fetal bovine serum (FBS) and 2 mM L-glutamine (all from Life Technologies, Carlsbad, Calif.) at 37° C. in a 5% CO2 incubator. To induce monocyte-to-macrophage differentiation, THP-1 cells were cultured for 48 h in RPMI-1640 medium supplemented with 100 nM phorbol 12-myristate 13-acetate (Sigma-Aldrich).
In FIG. 3-5, THP-1 macrophages (1×10^5 cells/500 μl medium/well) were incubated for 30 min with or without Ginsenoside M1, then for 5 h with or without 1 μg/ml LPS in the continued presence or absence of Ginsenoside M1, and then for 24 h with or without 200 μg/ml silica crystal (purchased from InvivoGen, San Diego, Calif.). The levels of IL-1β (FIG. 3), TNF-α (FIG. 4) and IL-6 (FIG. 5) in the culture medium were measured by ELISA.
as §1, with “After washing the plate three times with washing buffer, 100 μl of diluted streptavidin-HRP (horseradish peroxidase) concentrate was added to each well and incubated at room temperature for 30 min.” left out

[3] = test system: LPS-primed THP-1 macrophages; assay: Silica crystal-induced cytokine production in LPS-primed THP-1 macrophages, Ginsenoside M1 added after LPS priming (ELISA); assay type: cell-based, human; conditions: THP-1 primed 5 h with 1 μg/ml LPS, then M1 30 min, then 200 μg/ml silica crystal 24 h
Experimental: The levels of IL-1β in the culture medium were measured by ELISA. ** and *** indicates a significant difference at the level of p<0.01 and p<0.001, respectively compared to silica crystal alone.
The levels of TNF-α in the culture medium were measured by ELISA. ** indicates a significant difference at the level of p<0.01 compared to silica crystal alone.
The levels of IL-6 in the culture medium were measured by ELISA. *** indicates a significant difference at the level of p<0.001 compared to silica crystal alone.
as §2
In FIG. 6-8, THP-1 macrophages (1×10^5 cells/500 μl medium/well) were incubated for 5 h with or without 1 μg/ml LPS, then for 30 min with or without Ginsenoside M1 in the continued presence or absence of LPS, and then for 24 h with or without 200 μg/ml silica crystal. The levels of IL-1β (FIG. 6), TNF-α (FIG. 7) and IL-6 (FIG. 8) in the culture medium were measured by ELISA.
as §1, with “After washing the plate three times with washing buffer, 100 μl of diluted streptavidin-HRP (horseradish peroxidase) concentrate was added to each well and incubated at room temperature for 30 min.” left out

Male C57BL/6 mice = assay: Silica crystal-induced silicosis in mice, BALF analysis; assay type: in vivo, mouse; conditions: 60 mg/kg oral gavage daily day 0, 1, 2
Experimental: In FIG. 9-12, the animal experiments were conducted in accordance with the guidelines of the National Institutes of Health and approved by the Institutional Animal Care and Use Committee of National Ilan University. Male C57BL/6 mice were purchased from the National Laboratory Animal Center (Taipei, Taiwan). The animals were provided a chow diet and water ad libitum under conditions of 22-24° C., 40-70% relative humidity, and a 12 h light-dark cycle. Ginsenoside M1 (60 mg/kg body weight) was oral administered daily by gavage at day 0, 1 and 2. Silicosis in mice was induced by intratracheally exposed to 40 μl aqueous suspensions of 200 μg of silica crystals in PBS daily at day 0, 1 and 2 (n=6). Each day, mice exposed to silica crystals 4 h after Ginsenoside M1 administration. Control mice received PBS. After 4 h of the last silica crystals exposure, all mice were sacrificed using neck breaking, and a bronchoalveolar lavage was carried out by repeatedly instillating and withdrawing 1 ml of 1% BSA/PBS solution three consecutive times. The levels of IL-1β and IL-6 in the bronchoalveolar lavage fluid (BALF) were measured by ELISA. The total cell number in the BALF was counted by a hematocytometer and protein concentration in the BALF was determined by protein assay dye.
For ELISA assay, 50 μl of biotinylated antibody reagent and 50 μl of culture medium were added to an anti-IL-1β, TNF-α or IL-6 precoated stripwell plate, and incubated at room temperature for 2 h. After washing the plate three times with washing buffer, 100 μl of diluted streptavidin-HRP (horseradish peroxidase) concentrate was added to each well and incubated at room temperature for 30 min. The washing process was repeated; then 100 μl of a premixed tetramethylbenzidine substrate solution was added to each well and developed at room temperature in the dark for 30 min Following the addition of 100 μl of provided stop solution to each well to stop the reaction, the absorbance of the plate was measured by a microplate reader at a 450 nm wavelength.

20-O-β-D-glucopyranosyl-20(S)-protopanaxadiol [Ginsenoside M1]
IL-1β secretion in the culture medium [1]: reduced
level of NLRP3 in the cell lysates [2]: reduced
level of proIL-1β in the cell lysates [2]: reduced
IL-1β production (human THP-1 macrophages; FIG. 3, p<0.01): reduced
TNF-α production (human THP-1 macrophages; FIG. 4, p<0.01 and p<0.001): reduced
IL-6 production (human THP-1 macrophages; FIG. 5, p<0.05 and p<0.001): reduced
IL-1β production ([3]; FIG. 6, p<0.01 and p<0.001): reduced
TNF-α production ([3]; FIG. 7, p<0.01): reduced
IL-6 production ([3]; FIG. 8, p<0.001): reduced
silica crystal-induced IL-1β production in the murine BALF (Male C57BL/6 mice; intratracheal 200 μg silica crystals 4 h after dosing, FIG. 9, p<0.001): significantly reduced
silica crystal-induced IL-6 production in the murine BALF (Male C57BL/6 mice; intratracheal 200 μg silica crystals 4 h after dosing, FIG. 10, p<0.001): significantly reduced
silica crystal-induced increase of total cell number in BALF (Male C57BL/6 mice; intratracheal 200 μg silica crystals, hematocytometer, FIG. 12, p<0.01): significantly inhibited
silica crystal-induced increase of total protein concentration in BALF (Male C57BL/6 mice; intratracheal 200 μg silica crystals, protein assay dye, FIG. 11, p<0.001): significantly inhibited
